According to article PMC8617031, “Development of a BCL-xL and BCL-2 dual degrader with improved anti-leukemic activity,” (Nature Communications, 2021):
Several values for one entry are separate records, joined by “and”; a condition that tells them apart may be missing. Identical values can stand only once.

Tested on: HiBit-BCL-xL-WT/K157-only/K-ko with HaloTag-VHL
Test: NanoBRET ternary complex formation of WT, K157-only and K-ko BCL-xL with VHL and DT2216 in 293T cells
Format: cell-based, human
Conditions: triplicate wells
Source text: Plasmids HaloTag-VHL (Cat. No. CS1679C155) and CMV HiBit (Cat. No. CS1956B03) were purchased from Promega. HiBit-BCL-xL and HiBit-BCL-2 were constructed previously. The two mutants (HiBit-BCL-xL-K157-only and HiBit-BCL-xL-K-ko) were constructed through Gibson assembly method. The primer pair (5′-[…]-3′ and 5′-[…]c[…]-3′) and the template Flag-BCL-xL-K157-only or Flag-BCL-xL-K-ko (pDL2129)[2] were used to clone the BCL-xL-K157-only-containing and BCL-xL-K-ko-containing fragments, respectively. The primer pair (5′-[…]g[…]-3′ and 5′-[…]-3′) and pBit3.1-N (Cat. No. N2361, Promega) were used to clone the vector-containing fragment. The PCR fragments were assembled using NEBuilder® HiFi DNA Assembly Master Mix (Cat. No. E2621, NEB, Ipswich, MA, USA). DNA sequences in all these plasmids were authenticated by automatic sequencing. […] After 24 h, 2 × 10^4 transfected cells were seeded into white 96-well tissue culture plates in Gibco™ Opti-MEM™ I Reduced Serum Medium, No Phenol Red (Cat. No. 11-058-021, Fisher) containing 4% FBS with or without HaloTag NanoBRET 618 Ligand (Cat. No. PRN1662, Promega) and incubated overnight at 37 °C, 5% CO2. The following day, serial diluted compounds were added into the medium and plates were incubated at 37 °C, 5% CO2, for 6 h. After treatment, NanoBRET Nano-Glo Substrate (cat. no. N1662, Promega) was added into the medium, and the contents were mixed by shaking the plate for 30 s before measuring donor and acceptor signals on Biotek plate reader. Dual-filtered luminescence was collected with a 450/50 nm bandpass filter (donor, NanoBiT-BCL-XL protein or NanoBiT-BCL-2 protein) and a 610-nm longpass filter (acceptor, HaloTag NanoBRET ligand) using an integration time of 0.5 s. mBRET ratios were calculated following the NanoBRET™ Nano-Glo® Detection System (Cat. No. N1662, Promega).
Supplementary Fig. 3. […] WT represents wild type HiBit-BCL-xL; K157-only means that all the surface lysines on BCL-xL are mutated to arginines except K157; K-ko represents that all the surface lysines on BCL-xL are mutated to arginines. Data are expressed as mean ± s.e.m. of three biological replicates. Source data are provided as a Source Data file.

SMILES: Cc1ncsc1-c1ccc([C@H](C)NC(=O)[C@@H]2C[C@@H](O)CN2C(=O)[C@@H](NC(=O)CCCCCC(=O)N2CCN(CC[C@H](CSc3ccccc3)Nc3ccc(S(=O)(=O)NC(=O)c4ccc(N5CCN(CC6=C(c7ccc(Cl)cc7)CCC(C)(C)C6)CC5)cc4)cc3S(=O)(=O)C(F)(F)F)CC2)C(C)(C)C)cc1 [DT2216]
- NanoBRET ratio (610/450, background-corrected), Ave of Read1 and Read2 (BCL-xL-K157-only, 0.004 uM): 10.7987 and 11.5766 and 10.5479
- NanoBRET ratio (610/450, background-corrected), Ave of Read1 and Read2 (BCL-xL-K157-only, 0.012 uM): 11.0721 and 10.709 and 10.6817
- NanoBRET ratio (610/450, background-corrected), Read1 (BCL-xL-K157-only, 0.333 uM): 10.8894 and 11.2489 and 10.7657
- NanoBRET ratio (610/450, background-corrected), Read2 (BCL-xL-K157-only, 0.333 uM): 10.7079 and 11.9043 and 10.3302
- NanoBRET ratio (610/450, background-corrected), Read1 (BCL-xL-K157-only, 1 uM): 11.6598 and 10.7529 and 10.4117
- NanoBRET ratio (610/450, background-corrected), Read2 (BCL-xL-K157-only, 1 uM): 10.4844 and 10.6651 and 10.9516
- NanoBRET ratio (610/450, background-corrected), Read1 (BCL-xL-K157-only, 3 uM): 10.1831 and 11.8895 and 11.1918
- NanoBRET ratio (610/450, background-corrected), Read2 (BCL-xL-K157-only, 3 uM): 9.289 and 10.911 and 11.6927
- NanoBRET ratio (610/450, background-corrected), Ave of Read1 and Read2 (BCL-xL-K-ko, 0.111 uM): 9.743 and 8.289 and 8.518
- NanoBRET ratio (610/450, background-corrected), Ave of Read1 and Read2 (BCL-xL-K-ko, 0.333 uM): 10.8261 and 11.8027 and 12.9139
- NanoBRET ratio (610/450, background-corrected), Read1 (BCL-xL-K-ko, 0.333 uM): 11.2191 and 11.4255 and 13.2322
- NanoBRET ratio (610/450, background-corrected), Read2 (BCL-xL-K-ko, 0.333 uM): 10.4332 and 12.18 and 12.5957
- NanoBRET ratio (610/450, background-corrected), Ave of Read1 and Read2 (BCL-xL-K-ko, 1 uM): 12.3201 and 11.4125 and 11.9637
- NanoBRET ratio (610/450, background-corrected), Read1 (BCL-xL-K-ko, 1 uM): 11.8556 and 11.5549 and 12.6815
- NanoBRET ratio (610/450, background-corrected), Read2 (BCL-xL-K-ko, 1 uM): 12.7845 and 11.2702 and 11.2459
- NanoBRET ratio (610/450, background-corrected), Ave of Read1 and Read2 (BCL-xL-K-ko, 3 uM): 11.1936 and 11.8549 and 13.734
- NanoBRET ratio (610/450, background-corrected), Read1 (BCL-xL-K-ko, 3 uM): 11.8587 and 11.5989 and 13.3819
- NanoBRET ratio (610/450, background-corrected), Read2 (BCL-xL-K-ko, 3 uM): 10.5286 and 12.111 and 14.0861
- NanoBRET ratio (610/450, background-corrected), Ave of Read1 and Read2 (BCL-xL-WT, 0.004 uM): 9.743 and 11.8617 and 10.3438
- NanoBRET ratio (610/450, background-corrected), Ave of Read1 and Read2 (BCL-xL-WT, 0.012 uM): 9.762 and 10.7766 and 10.2017
- NanoBRET ratio (610/450, background-corrected), Read1 (BCL-xL-WT, 0.333 uM): 9.95 and 12.5908 and 9.76
- NanoBRET ratio (610/450, background-corrected), Read2 (BCL-xL-WT, 0.333 uM): 9.537 and 11.1326 and 10.9276
- NanoBRET ratio (610/450, background-corrected), Read1 (BCL-xL-WT, 1 uM): 10.2229 and 10.6812 and 9.915
- NanoBRET ratio (610/450, background-corrected), Read2 (BCL-xL-WT, 1 uM): 9.301 and 10.872 and 10.4881
- NanoBRET ratio (610/450, background-corrected), Read1 (BCL-xL-WT, 3 uM): 9.528 and 10.0038 and 9.921
- NanoBRET ratio (610/450, background-corrected), Read2 (BCL-xL-WT, 3 uM): 9.235 and 10.9871 and 9.69
